In paper PMC5566973 (Frontiers in Pharmacology, 2017):
Like-named read-outs stand apart in the source and are kept apart here.

Experiments:
[1] = Pharmacokinetics in rats after intravenous and intragastric administration; settings: for bioavailability: F%
Protocol: Fifty-six pathogen-free Sprague-Dawley adult rats comprising 28 males and 28 females (weighing within the range of 200–250 g) were obtained from Drug Safety Evaluation and Research Center of Shanghai University of Traditional Chinese Medicine. Animals were raised under an environmentally controlled breeding room for 7 days before commencing the experiments. Animals were housed in a well-lighted air-conditioned room (25 ± 1°C) under standard environmental conditions (12 h light-dark cycles) and given free access to rodent chow and tap water prior to the study. Rats were fasted for 12 h and provided free access to water prior to the experiments. All animal-use procedures were in accordance with the regulations for animal experimentation issued by the State Committee of Science and Technology of the People's Republic of China on 14 November 1988 and approved by the Animal Ethics Committee of Shanghai University of Traditional Chinese Medicine (No. SUTCM-2011-1107; Approval date: 10 November, 2011).
Forty rats with 20 males and 20 females were randomly divided into five groups of eight rats in each. […] Approximately 0.25 mL of blood sample was collected from the angular vein of each conscious rat and transferred into heparinized tubes at 0 (predose), 0.03, 0.08, 0.25, 0.5, 0.75, 1.0, 2.0, 4.0, 8.0, 12.0, and 24.0 h after administration. Rats had free access to water after 4.0 h of blood sample collection. Serial blood samples were immediately centrifuged at 3,000 rpm for 15 min, and 100 μL of the supernatant plasma layer was transferred into another new 1.5 mL centrifuge tube and stored at −80°C until analysis.
The maximum peak concentration (Cmax) and time of maximum plasma concentration (Tmax) were obtained directly from the observed concentration vs. time data.
(5) F=(AUC0−∞,oral×Doseiv)/(AUC0−∞,iv×Doseoral)×100%

OCTs/OCTNs = assay: Bidirectional transport in MDCK cell monolayers with selective transporter inhibitors or substrates; format: in vitro ADME, canine; settings: dog, with TEA 5 mM, + TEA 5 mM (OCTs/OCTNs)
Protocol: (§1) Caco-2, MDCK and MDCK-MRP2 cells were donated by Prof. Yan Xie and Yueming Ma from Shanghai University of Traditional Chinese Medicine. The cells were grown in culture dishes (Corning® Costar, Cambridge, MA, USA) using DMEM supplemented with 10% FBS, 1% NEAA and 1% penicillin-streptomycin solution. The cells were cultured in 5% CO2 and […] with 90% relative humidity at 37°C. The medium was replaced every other day during incubation. The cells were passaged every 3–4 days between 70 and 80% confluence at a 1:5 split ratio using 0.25% trypsin-EDTA. For the transport experiments, the cells from passages between 30 and 45 were seeded at 1 × 10^5 cells/cm^2 onto permeable polycarbonate inserts (0.45 μm pore size, seeding surface of 0.6 cm^2, Millipore, MA, USA) in 24-well plastic plates. The media in the culture plates were changed every other day for the first week after seeding and were replaced daily afterward. […] The cells were used for the transport experiments 21–28 (Caco-2) or 5–7 (MDCK and MDCK-MRP2) days after seeding, and only monolayers with a TEER-value above 420 Ω cm^2 were used during the studies.
(§2) The apical (AP) and basolateral (BL) sides are typical of polarized Caco-2, MDCK and MDCK-MRP2 epithelial cells. Before the experiments, the polarized cell monolayers were washed twice with warm HBSS solution and subsequently preincubated (37°C, 30 min). Afterward, HBSS solution on both sides of the cell monolayers was removed using a mini desktop vacuum pump. […] The final DMSO concentration in the HBSS or drug mixture was below 0.5%. The monolayers were incubated at 37°C, and 100 μL samples were taken at 30, 60, 90, and 120 min from the acceptor compartment and immediately replaced with the same volume of prewarmed fresh blank HBSS. TEER measurements for assessing the membrane integrity took place before and after the experiments.
(§3) The apparent permeability coefficients (Papp) and ER were calculated as Equations (2) and (3): […]
(§4) where dQ/dt is the steady-state flux, A is the membrane surface area, and C0 is the initial drug concentration in the donor compartment. PappBA is the Papp-value measured in BL to AP direction and PappAB is the Papp-value measured in AP to BL direction. It indicated the involvement of an active transport process when the ER-value is above 1.5 (Hubatsch et al., [2007]).

MRP2 = assay: as above; format: in vitro ADME, canine; settings: dog; for efflux ratio at 120 min, 2 μM: read-out: ER
Protocol: as §1, §2, §3, §4

Na+/K+-ATPase = assay: as above; format: in vitro ADME, canine; settings: dog, with sodium vanadate 0.05 mM (50 μM), + Sodium vanadate 0.05 mM (Na^+)
Protocol: as §1, §2, §3, §4

SGLT1 = assay: as above; format: in vitro ADME, canine; settings: dog, with phloridzin 0.5 mM, + Phloridzin 0.5 mM (SGLT1)
Protocol: as §1, §2, §3, §4

[2] = test system: ATP (adenosine triphosphate); assay: as above; format: in vitro ADME, canine; settings: dog, with NaN3 10 mM, + NaN3 10 mM (ATP)
Protocol: as §1, §2, §3, §4

MDR1 = assay: as above; format: in vitro ADME, canine; settings: dog; for efflux ratio at 120 min, 2 μM: read-out: ER
Protocol: as §1, §2, §3, §4

[3] = Metabolic stability in human liver microsomes; settings: for residual percentage: human liver microsomes 0.5 mg protein/mL, 2 μM, after incubation; for half-life at 2 μM / microsomal CLint at 2 μM: human, liver microsomes
[4] = both, Sprague-Dawley, rat, in vivo, iv, 3.3 mg/kg
[5] = both, Sprague-Dawley, rat, in vivo, iv, 3.3 mg/kg, rats, i.v. 3.3 mg/kg
[6] = both, Sprague-Dawley, rat, in vivo, po, 40 mg/kg
[7] = both, Sprague-Dawley, rat, in vivo, po, 40 mg/kg, rats, p.o. 40.0 mg/kg
[8] = both, Sprague-Dawley, rat, in vivo, po, 40 mg/kg, rats, p.o. 40.0 mg/kg vs i.v. 3.3 mg/kg
[9] = with MK571 0.05 mM (50 μM), + MK571 0.05 mM (MRP2)
[10] = with probenecid 0.2 mM (200 μM), + Probenecid 0.2 mM (MRP2)
[11] = with quinidine 0.1 mM (100 μM), + Quinidine 0.1 mM (MDR1)
[12] = with verapamil 0.1 mM (100 μM), + Verapamil 0.1 mM (MDR1)
[13] = both, Sprague-Dawley, rat, in vivo, po, 40 mg/kg, rats, harmine p.o. 40.0 mg/kg co-administered with probenecid 20.0 mg/kg
[14] = rats, harmine p.o. 40.0 mg/kg co-administered with probenecid 20.0 mg/kg

COc1ccc2c3c([nH]c2c1)C(C)=NCC3 [Harmaline] gave a Vd [1, 4] of 94.1 ± 102 L/kg, a clearance [1, 4] of 10.4 L/h/kg and a k el [1, 4] of 6.39e-05 s⁻¹. The AUC(0-t) [1, 5] was 0.299 ± 0.0643 µg·h/mL, the AUC(0-inf) [1, 5] was 0.307 ± 0.0643 µg·h/mL and the Cmax [1, 5] was 0.258 ± 0.0649 µg/mL. The MRT [1, 5] was 2.53 ± 1.42 h, the Tmax [1, 5] was 0.03 h and the k el [1, 6] was 5.56e-05 s⁻¹. For the same molecule, the AUC(0-t) [1, 7] was 0.644 ± 0.328 µg·h/mL, the AUC(0-inf) [1, 7] was 0.666 ± 0.322 µg·h/mL and the Cmax [1, 7] was 0.118 ± 0.059 µg/mL. For the same molecule, the bioavailability [1, 8] was 17.1 ± 10.1%, the MRT [1, 7] was 6.24 ± 3.18 h and the Tmax [1, 7] was 1.76 ± 1.11 h. It also gave a Ka ([1]; rats, i.v. 3.3 mg/kg) of 1.26 ± 0.83 h⁻¹, a T1/2a ([1]; rats, i.v. 3.3 mg/kg) of 1.24 ± 1.02 h and a T1/2e ([1]; rats, i.v. 3.3 mg/kg) of 4.05 ± 1.39 h. For the same molecule, the T1/2d ([1]; rats, i.v. 3.3 mg/kg) was 1.57 ± 1.25 h, the CL ([1]; rats, p.o. 40.0 mg/kg) was 74.66925 ± 41.32069 L/h/kg and the Ka ([1]; rats, p.o. 40.0 mg/kg) was 0.71 ± 0.38 h⁻¹. It also gave a T1/2a ([1]; rats, p.o. 40.0 mg/kg) of 1.74 ± 1.13 h, a T1/2e ([1]; rats, p.o. 40.0 mg/kg) of 5.13 ± 1.52 h and a T1/2d ([1]; rats, p.o. 40.0 mg/kg) of 2.40 ± 1.20 h. The Vd ([1]; rats, p.o. 40.0 mg/kg) was 705.97445 ± 595.53126 L/kg, the Papp A→B at 120 min, 2 μM (OCTs/OCTNs) was 165 ± 11 nm/s and the Papp B→A at 120 min, 2 μM (OCTs/OCTNs) was 228 ± 2.9 nm/s. It also gave an efflux ratio at 120 min, 2 μM (OCTs/OCTNs; read-out: ER) of 1.38, an efflux ratio at 120 min, 2 μM (MRP2; [9]) of 1.15 and an efflux ratio at 120 min, 2 μM (MRP2; [10]) of 1.04. For the same molecule, the Papp A→B at 120 min, 2 μM (Na+/K+-ATPase) was 162 ± 14.5 nm/s, the Papp B→A at 120 min, 2 μM (Na+/K+-ATPase) was 204 ± 2.2 nm/s and the efflux ratio at 120 min, 2 μM (Na+/K+-ATPase; read-out: ER) was 1.26. For the same molecule, the efflux ratio at 120 min, 2 μM (SGLT1; read-out: ER) was 1.29, the efflux ratio at 120 min, 2 μM ([2]; read-out: ER) was 1.4 and the Papp A→B at 120 min, 2 μM (MDR1; [11]) was 201 ± 7.6 nm/s. For the same molecule, the Papp B→A at 120 min, 2 μM (MDR1; [11]) was 225 ± 11.2 nm/s, the efflux ratio at 120 min, 2 μM (MDR1; [11]) was 1.12 and the Papp B→A at 120 min, 2 μM (MDR1; [12]) was 220 ± 26.4 nm/s. For the same molecule, the efflux ratio at 120 min, 2 μM (MDR1; [12]) was 1.05, the residual percentage [3] was 64.16% and the half-life at 2 μM [3] was 2.46 h. For the same molecule, the microsomal CLint at 2 μM [3] was 9.4 µL/min/mg.

Molecule COc1ccc2c(c1)[nH]c1c(C)nccc12 [Harmine] has a Vd [1, 4] of 10.4 ± 5.75 L/kg, a clearance [1, 4] of 2.45 L/h/kg and a k el [1, 4] of 8.33e-05 s⁻¹. The AUC(0-t) [1, 5] was 1.26 ± 0.238 µg·h/mL, the AUC(0-inf) [1, 5] was 1.27 ± 0.239 µg·h/mL and the Cmax [1, 5] was 2.32 ± 0.663 µg/mL. The MRT [1, 5] was 1.01 ± 0.3 h, the Tmax [1, 5] was 0.03 h and the k el [1, 6] was 1.39e-05 s⁻¹. It also gave an AUC(0-t) [1, 13] of 0.292 ± 0.0704 µg·h/mL, an AUC(0-t) [1, 7] of 0.154 ± 0.0465 µg·h/mL and an AUC(0-inf) [1, 13] of 0.349 ± 0.0767 µg·h/mL. For the same molecule, the AUC(0-inf) [1, 7] was 0.184 ± 0.0574 µg·h/mL, the Cmax [1, 13] was 0.0989 ± 0.0311 µg/mL and the Cmax [1, 7] was 0.067 ± 0.0343 µg/mL. For the same molecule, the bioavailability [1, 13] was 2.14 ± 0.59%, the bioavailability [1, 8] was 1.09 ± 0.27% and the MRT [1, 13] was 13.7 ± 3.54 h. For the same molecule, the MRT [1, 7] was 4.41 ± 1.03 h, the Tmax [1, 13] was 0.79 ± 0.12 h and the Tmax [1, 7] was 0.56 ± 0.13 h. For the same molecule, the “increase of F-value after probenecid co-administration” value ([1]; rats, harmine p.o. 40.0 mg/kg + probenecid 20.0 mg/kg vs harmine alone) was 1.96 folds, the CL [1, 14] was 118.00432 ± 24.59981 L/h/kg and the Ka [1, 14] was 0.73 ± 0.46 h⁻¹. For the same molecule, the Vd [1, 14] was 2464.53513 ± 990.15463 L/kg, the Ka ([1]; rats, i.v. 3.3 mg/kg) was 2.71 ± 1.24 h⁻¹ and the CL ([1]; rats, p.o. 40.0 mg/kg) was 233.43953 ± 56.2046 L/h/kg. For the same molecule, the Ka ([1]; rats, p.o. 40.0 mg/kg) was 0.63 ± 0.42 h⁻¹, the Vd ([1]; rats, p.o. 40.0 mg/kg) was 4761.64239 ± 1571.7721 L/kg and the Papp A→B at 120 min, 2 μM (OCTs/OCTNs) was 41.5 ± 1 nm/s. For the same molecule, the Papp B→A at 120 min, 2 μM (OCTs/OCTNs) was 69.6 ± 2.4 nm/s, the Papp A→B at 120 min, 2 μM (MRP2; [9]) was 51.4 ± 1 nm/s and the Papp B→A at 120 min, 2 μM (MRP2; [9]) was 66.7 ± 3.7 nm/s. For the same molecule, the Papp A→B at 120 min, 2 μM (MRP2; [10]) was 52.1 ± 2.6 nm/s, the Papp A→B at 120 min, 2 μM (Na+/K+-ATPase) was 38.7 ± 2.7 nm/s and the Papp B→A at 120 min, 2 μM (Na+/K+-ATPase) was 52.2 ± 9.7 nm/s. It also gave a Papp B→A at 120 min, 2 μM (SGLT1) of 62.7 ± 7.8 nm/s, a Papp A→B at 120 min, 2 μM [2] of 40.2 ± 1.8 nm/s and a Papp B→A at 120 min, 2 μM [2] of 59.4 ± 6.3 nm/s. For the same molecule, the Papp A→B at 120 min, 2 μM (MDR1; [11]) was 44.3 ± 3.2 nm/s, the Papp B→A at 120 min, 2 μM (MDR1; [11]) was 73.9 ± 3.2 nm/s and the Papp B→A at 120 min, 2 μM (MDR1; [12]) was 76.7 ± 2.1 nm/s. For the same molecule, the residual percentage [3] was 54.25%, the half-life at 2 μM [3] was 1.65 h and the microsomal CLint at 2 μM [3] was 14 µL/min/mg.
